Starred links: 1 amine or outer side, 2 acyl side, 3 side chain; linkers in the order of their positions; H or OH if unused. Non-standard residues stand in square brackets, D forms with d. Residues, ends and D or L forms follow the SMILES beside them. *: point of attachment. X2 = O=C(O)CC[C@@H](NC(=O)N[C@H](CCCCNC(=O)[C@H](Cc1ccc2ccccc2c1)NC(=O)CCCN1C(=O)C[C@@H](*)C1=O)C(=O)O)C(=O)O; DOTA = O=C(O)CN1CCN(CC(=O)O)CCN(CC(=O)*)CCN(CC(=O)O)CC1; X1 = O=C(c1ccc(NN[*:1])nc1)[*:2]
Assays:
[1] = system: LNCaP cells (PSMA+, CS-GRP78+); assay: Cytosolic and nuclear internalization (subcellular fractionation) in LNCaP cells; format: cell-based, human; details: LNCaP cells 1 × 10^5/200 µL, 37 kBq/4 nmol, 1 h, 37 °C; for Cytosolic internalization: gamma counting of cytosolic fraction; for Nuclear internalization: gamma counting of nuclear extract
Protocol: (§1) PC-3 (CRL-1435; ATCC, Manassas, VA, USA) and LNCaP human prostate cancer cells (CRL-1740; ATCC, USA) were cultured in Roswell Park Memorial Institute medium (RPMI; Sigma-Aldrich, USA) at 37 °C, 85% humidity, 5% CO2, and 10% fetal bovine serum.
(§2) Assays were performed to evaluate the cellular uptake and subcellular distribution of [^177Lu]Lu–iPSMA–iGRP78 and the control monomers [^177Lu]Lu–iPSMA and [^177Lu]Lu–iGRP78 in two prostate cancer cell lines: LNCaP (PSMA+, SC-GRP78+) and PC3 (PSMA^−, CS-GRP78^−). Cells (1 × 10^5/200 µL) were incubated with the radiopharmaceutical (37 kBq/4 nmol) for 1 h at 37 °C to assess the distribution between the cytoplasm and nucleus.
Following incubation, tubes were measured with a NaI(Tl) crystal scintillation gamma-counter (NML Inc., TX, USA) to determine 100% of the initial activity. The tubes were centrifuged at 250× g for 5 min, and the supernatant was withdrawn. The activity in the pellet was measured to determine the percentage of cellular uptake (surface uptake) relative to the initial activity. Next, the nuclei and cytoplasm of the cells were separated using a Nuclear Extraction Kit (Chemicon International, Inc., Temecula, CA, USA). To prepare for fractionation, the cells were first washed with 1 mL of 0.2 M acetic acid/0.5 M NaCl. The tubes were centrifuged at 250× g for 5 min, washed with phosphate-buffered saline (PBS), and then centrifuged again to ensure thorough removal of extracellular components.
(§3) After centrifugation, the cell pellet, which corresponds to the internalized activity, was quantified using a gamma counter. The radioactivity measured in the pellet was defined as 100% of the internalized activity.
The pellet was resuspended in cytoplasmic lysis buffer with dithiothreitol and a protease inhibitor cocktail to maintain protein stability during lysis. Mechanical disruption was performed by passing the suspension through a 27-gauge needle multiple times using a syringe to ensure complete cell breakdown. The resulting lysate underwent centrifugation at 8000× g for 20 min at 4 °C. The supernatant, representing the cytosolic fraction, was collected and analyzed for radioactivity via gamma counting.
The remaining pellet, containing the nuclear fraction, was resuspended in nuclear extraction buffer supplemented with dithiothreitol and a protease inhibitor cocktail. Nuclear disruption was carried out before centrifuging at 16,000× g for 5 min at 4 °C. The supernatant contained the nuclear extract, while the membrane components remained in the pellet.
(§4) Radioactivity measurements were conducted on both the nuclear extract and the membrane pellet fractions using a gamma counter. The percentage of activity within each subcellular compartment was calculated for each time point, allowing for evaluation of the distribution of [^177Lu]Lu–iPSMA–iGRP78 and control monomers [^177Lu]Lu–iPSMA and [^177Lu]Lu–iGRP78 between the cytoplasmic and nuclear compartments of prostate cancer cells over time.

[2] = system: LNCaP cells (PSMA+, CS-GRP78+); assay: Saturation binding assay on LNCaP cells; parameters: species or system human; details: 1-100 nM radioligand, 4 °C, 2 h, non-specific binding with 1 μM PMPA, n = 3 from two independent experiments; for Kd: GraphPad Prism, read-out: Dissociation constant (Kd)
Protocol: as §1
The affinity comparison between the [^177Lu]Lu–iPSMA–iGRP78 dimer and [^177Lu]Lu–iPSMA monomer was performed in LNCaP cells. For the saturation binding analysis, cells were seeded on 96-well plate cultures ([…]) and incubated at 37 °C under a CO2 atmosphere for 24 h, then the plates were placed on ice for 30 min. Next, they were incubated at 4 °C for 2 h with increasing concentrations (from 1nM to 100 nM) of the monomer [^177Lu]^natLu-iPSMA or the dimer [^177Lu]^natLu-iPSMA-iGRP78. Finally, cells were washed with PBS followed by the addition of 1M NaOH for cell lysis. This solution was measured for radioactivity using a NaI(Tl) gamma counter (NML Inc., Littleton, CO, USA). Non-specific binding of [^177Lu]Lu–iPSMA–iGRP78 and [^177Lu]Lu–iPSMA was determined under the same experimental conditions described above but in the presence of PMPA (2-(phosphonomethyl) pentanedioic acid) at a final concentration of 1 μM. The dissociation constant (Kd) and maximum number of binding sites (Bmax) were calculated by a lineal regression analysis with data (n = 3) from two independent experiments using the GraphPad Prism software (v. 10.6.1).

[3] = system: PC3 cells (PSMA−, CS-GRP78−); assay: Cytosolic and nuclear internalization (subcellular fractionation) in PC3 cells; format: cell-based, human; details: PC3 cells 1 × 10^5/200 µL, 37 kBq/4 nmol, 1 h, 37 °C
Protocol: as §1, §2
Following incubation, tubes were measured with a NaI(Tl) crystal scintillation gamma-counter (NML Inc., TX, USA) to determine 100% of the initial activity. The tubes were centrifuged at 250× g for 5 min, and the supernatant was withdrawn. The activity in the pellet was measured to determine the percentage of cellular uptake (surface uptake) relative to the initial activity. […]
as §3
The pellet was resuspended in cytoplasmic lysis buffer with dithiothreitol and a protease inhibitor cocktail to maintain protein stability during lysis. […] The supernatant, representing the cytosolic fraction, was collected and analyzed for radioactivity via gamma counting. […]
as §4

[4] = Stability in PBS (radiochemical purity by radio-HPLC); format: physicochemical; details: 10 µL (18.5 MBq) in 1 mL PBS, 3 h, 37 °C; reverse-phase radio-HPLC; n = 3
Protocol: The quality control assessed bacterial endotoxins, sterility, pH, and appearance, following the general methods of the Mexican Pharmacopeia. Radiochemical purity was evaluated by reversed-phase radio-high-performance liquid chromatography (radioHPLC) ( LC-40DxR, Shimadzu, Kyoto, Japan). A shim-pack GIST C18 column (Shimadzu: 4.6 mm × 25 cm, 5 μm particle size) with a linear gradient from 100% to 10% of mobile phase A (0.1% TFA aqueous solution) and from 0% to 90% of phase B (0.1% TFA in acetonitrile) in 20 min at 1 mL/min. The retention time of [^177Lu]Lu–iPSMA–iGRP78 was 17.4 ± 0.3 min, and 3.7 ± 0.2 min for ^177LuCl3. Radiochemical purities of [^177Lu]Lu–iPSMA (tR = 15.2 ± 0.2 min) and [^177Lu]Lu–iGRP78 (tR = 19.2 ± 0.4 min) were also verified to be higher than 95%.
To assess the in vitro stability of [^177Lu]Lu-iPSMA-iGRP78, 10 µL (18.5 MBq) of the radiopharmaceutical was diluted in either 1 mL of PBS or 1 mL of human serum (NIST-909c certified human serum sample; Sigma-Aldrich, St. Louis, MO, USA) (n = 3). The mixtures were incubated for 3 h at 37 °C. Then, 0.5 mL of acetonitrile was added to the human serum samples to precipitate the proteins, and the mixtures were centrifuged at 500× g for 10 min. The radiochemical purity of the human serum supernatants and PBS solution samples was analyzed by reverse-phase radio-HPLC, as described above.

LNCaP cells = assay: Cytotoxicity / cell viability by flow cytometry (Muse Count & Viability kit); format: cell-based, human; details: LNCaP 5 × 10^4 cells/200 µL, 1.4 MBq, 5 h (15 Gy/h whole-cell dose); triplicate (n = 3) from two independent experiments, mean ± SD
Protocol: The effects of radioligands on LNCaP cell viability were evaluated using advanced flow cytometry techniques. The radioligands tested were [^177Lu]Lu–iPSMA–iGRP78, [^177Lu]Lu–iPSMA, and [^177Lu]Lu–iGRP78. This evaluation was conducted to assess their impact on the survival of prostate cancer cells. Cell viability was measured using the Count & Viability kit (Muse®). Prior to analysis, the Muse® cell analyzer (Merck Millipore, Burlington, MA, USA) was calibrated with the verification kit to ensure its accuracy. First, a fresh, untreated LNCaP cell sample was analyzed to establish reference parameters, including cell size, granularity, and natural cell viability. To accurately distinguish between live and dead cells, an aliquot of the same cell population was treated with 0.05% Triton X-100. This treatment defined the dead cell detection window in the analyzer. Next, a specific detection window was established for LNCaP cells to differentiate between viable and non-viable cells during analysis accurately. For each experimental group, a cell suspension containing 5 × 10^4 cells in 200 µL was prepared. The cells were then treated as follows: 1.4 MBq of (a) [^177Lu]Lu–iPSMA–iGRP78, (b) [^177Lu]Lu–iPSMA, (c) [^177Lu]Lu–iGRP78, and (d) untreated. After five hours of treatment (15 Gy/h at whole-cell dose), the cells were mixed with 450 µL of viability reagent and incubated for 5 min at room temperature in the dark. All measurements were performed in triplicate (n = 3) from two independent experiments to ensure reliability and reproducibility. To determine the radiation absorbed dose rate to the whole cell (15 Gy/h), the total number of nuclear transformations (N) was calculated. This value was normalized to the administered activity unit (MBq·s/MBq) by integrating the activity (A(t)) from time zero to five hours. Next, the absorbed dose was calculated by multiplying N by the dose factor (DF: from cell to cell) (Gy/Bq·s), as determined by MIRDcell software, considering the crossfire absorbed dose (version 2.1).

Row | Compound | Cytosolic internalization [1] | Nuclear internalization [1] | Maximum number of binding sites (Bmax) [2] | Kd [2] | Uptake in cellular cytosol and nucleus [3] | Radiochemical purity, unchanged after incubation in PBS [4] | Dead cells (LNCaP cells)
1 | O=C(O)CC[C@@H](NC(=O)N[C@H](CCCCNC(=O)[C@H](Cc1ccc2ccccc2c1)NC(=O)c1ccc(NNC(=O)CN2CCN(CC(=O)O)CCN(CC(=O)O)CCN(CC(=O)O)CC2)nc1)C(=O)O)C(=O)O [[^177Lu]Lu–iPSMA, metal not drawn] | 6.45 ± 0.60% | no uptake in the cell nucleus | 0.032 nM | 2.25 nM | low uptake | exceeding 97% | 38.63 ± 6.13%
2 | CC[C@@H](C)[C@@H](NC(=O)[C@@H](Cc1c[nH]c2ccccc12)NC(=O)[C@H]1CCCN1C(=O)[C@@H](Cc1ccccc1)NC(=O)[C@H](NC(=O)[C@@H](Cc1c[nH]c2ccccc12)NC(=O)[C@@H](CS[C@@H]1CC(=O)N(CCCC(=O)N[C@@H](Cc2ccc3ccccc3c2)C(=O)NCCCC[C@@H](NC(=O)N[C@H](CCC(=O)O)C(=O)O)C(=O)O)C1=O)NC(=O)c1ccc(NNC(=O)CN2CCN(CC(=O)O)CCN(CC(=O)O)CCN(CC(=O)O)CC2)nc1)[C@H](C)CC)C(=O)N[C@H](CCC(N)=O)C(=O)N[C@H](CC(C)C)C(=O)O [[^177Lu]Lu–iPSMA–iGRP78, metal not drawn] ({DOTA}-[X1][dC](X2)[dW][dI][dF][dP][dW][dI][dQ][dL]-OH) | 10.44 ± 2.43% | 4.81 ± 0.94% | 0.048 nM | 1.88 nM | low uptake | exceeding 97% | 69.93 ± 4.85%
3 | CC[C@@H](C)[C@@H](NC(=O)[C@@H](Cc1c[nH]c2ccccc12)NC(=O)[C@H]1CCCN1C(=O)[C@@H](Cc1ccccc1)NC(=O)[C@H](NC(=O)[C@@H](Cc1c[nH]c2ccccc12)NC(=O)[C@@H](CS)NC(=O)c1ccc(NNC(=O)CN2CCN(CC(=O)O)CCN(CC(=O)O)CCN(CC(=O)O)CC2)nc1)[C@H](C)CC)C(=O)N[C@H](CCC(N)=O)C(=O)N[C@H](CC(C)C)C(=O)O [[^177Lu]Lu–iGRP78, metal not drawn] ({DOTA}-[X1][dC][dW][dI][dF][dP][dW][dI][dQ][dL]-OH) | highest internalization values | highest internalization values | – | – | low uptake | exceeding 97% | 68.93 ± 5.05%

From article PMC12733166, “Enhancing Cytosolic Internalization of [^177Lu]Lu–iPSMA in Prostate Cancer Cells: The Effect of Conjugating a GRP78 Inhibitor to the Radiotherapeutic Molecule” (International Journal of Molecular Sciences, 2025)
